Results from patent US20250171438A1 (Agios Pharmaceuticals, Inc., priority 2022, published 2025).

Molecular target: T1, human PAH with the R408W mutation (Homo sapiens, UniProt P00439, R408W)
T1 construct: expressed in transfected cells
T1 sequence (P00439 1-452 R408W): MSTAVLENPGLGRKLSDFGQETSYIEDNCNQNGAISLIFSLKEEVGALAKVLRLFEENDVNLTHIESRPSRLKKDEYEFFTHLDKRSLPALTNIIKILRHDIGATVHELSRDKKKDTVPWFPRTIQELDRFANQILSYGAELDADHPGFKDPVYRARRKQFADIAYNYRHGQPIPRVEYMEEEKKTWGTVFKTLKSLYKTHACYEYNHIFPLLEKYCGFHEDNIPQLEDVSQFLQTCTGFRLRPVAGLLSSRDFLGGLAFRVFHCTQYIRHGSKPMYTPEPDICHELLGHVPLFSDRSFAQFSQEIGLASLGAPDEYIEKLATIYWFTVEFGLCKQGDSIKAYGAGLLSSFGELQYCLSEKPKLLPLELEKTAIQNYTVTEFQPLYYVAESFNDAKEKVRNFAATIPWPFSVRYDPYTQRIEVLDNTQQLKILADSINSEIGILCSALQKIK
Experiment: Cell Based Phenylalanine Flux Assay
Conditions: A375 cells expressing human R408W PAH; 24 hrs compound incubation; 13C-Tyrosine by LC-MS; average where tested multiple times; read-out: AC50

SMILES	AC50 [nM]
CC(C)(O)c1nc(C(F)F)c(C(=O)N2CCc3[nH]cnc3[C@H]2c2nc3c(F)cccc3s2)o1 [Example 1773, (S)-(4-(difluoromethyl)-2-(2-hydroxypropan-2-yl)oxazol-5-yl)(4-(4-fluorobenzo[d]thiazol-2-yl)-6,7-dihydro-1H-imidazo[4,5-c]pyridin-5(4H)-yl)methanone]	< 500
CC(C)(O)c1nc(C(F)F)c(C(=O)N2CCc3[nH]cnc3[C@@H]2c2nc3c(F)cccc3s2)o1 [Example 1774, (R)-(4-(difluoromethyl)-2-(2-hydroxypropan-2-yl)oxazol-5-yl)(4-(4-fluorobenzo[d]thiazol-2-yl)-6,7-dihydro-1H-imidazo[4,5-c]pyridin-5(4H)-yl)methanone]	1000 to 5000
COCc1nc(Br)c(C(=O)N2CCc3[nH]cnc3[C@@H]2c2nc3c(F)cccc3s2)o1 [Example 1775, (R)-(4-bromo-2-(methoxymethyl)oxazol-5-yl)(4-(4-fluorobenzo[d]thiazol-2-yl)-6,7-dihydro-1H-imidazo[4,5-c]pyridin-5(4H)-yl)methanone]	500 to 1000
COCc1nc(Br)c(C(=O)N2CCc3[nH]cnc3[C@H]2c2nc3c(F)cccc3s2)o1 [Example 1776]	< 500
N#Cc1nn2cc(Br)ccc2c1C(=O)N1CCc2[nH]cnc2[C@H]1c1nc2ccccc2s1 [Example 1779, (S)-3-(4-(benzo[d]thiazol-2-yl)-4,5,6,7-tetrahydro-1H-imidazo[4,5-c]pyridine-5-carbonyl)-6-bromopyrazolo[1,5-a]pyridine-2-carbonitrile]	< 500
N#Cc1nn2cc(Br)ccc2c1C(=O)N1CCc2[nH]cnc2[C@@H]1c1nc2ccccc2s1 [Example 1780, (R)-3-(4-(benzo[d]thiazol-2-yl)-4,5,6,7-tetrahydro-1H-imidazo[4,5-c]pyridine-5-carbonyl)-6-bromopyrazolo[1,5-a]pyridine-2-carbonitrile]	1000 to 5000
CN(C)Cc1nc(C(F)F)c(C(=O)N2CCc3[nH]cnc3[C@H]2c2nc3ccccc3s2)o1 [Example 1781]	< 500
CN(C)Cc1nc(C(F)F)c(C(=O)N2CCc3[nH]cnc3[C@@H]2c2nc3ccccc3s2)o1 [Example 1782, (R)-(4-(benzo[d]thiazol-2-yl)-6,7-dihydro-1H-imidazo[4,5-c]pyridin-5(4H)-yl)(4-(difluoromethyl)-2-((dimethylamino)methyl)oxazol-5-yl)methanone]	500 to 1000
Cc1cc(F)ccc1-c1nnc(C(=O)N2CCc3[nH]cnc3[C@H]2c2nc3ccccc3s2)o1 [Example 1783]	< 500
Cc1cc(F)ccc1-c1nnc(C(=O)N2CCc3[nH]cnc3[C@@H]2c2nc3ccccc3s2)o1 [Example 1784, (R)-(4-(benzo[d]thiazol-2-yl)-6,7-dihydro-1H-imidazo[4,5-c]pyridin-5(4H)-yl)(5-(4-fluoro-2-methylphenyl)-1,3,4-oxadiazol-2-yl)methanone]	> 5000
O=C(c1oc(C2CC(F)(F)C2)nc1C(F)F)N1CCc2[nH]cnc2[C@@H]1c1nc2ccccc2s1 [Example 1785, (R)-(4-(benzo[d]thiazol-2-yl)-6,7-dihydro-1H-imidazo[4,5-c]pyridin-5(4H)-yl)(2-(3,3-difluorocyclobutyl)-4-(difluoromethyl)oxazol-5-yl)methanone]	< 500
O=C(c1oc(C2CC(F)(F)C2)nc1C(F)F)N1CCc2[nH]cnc2[C@H]1c1nc2ccccc2s1 [Example 1786]	< 500
Cn1nc(C(F)(F)F)cc1C(=O)N1CCc2[nH]cnc2[C@H]1c1nc2c(F)cccc2s1 [Example 1787, (S)-(4-(4-fluorobenzo[d]thiazol-2-yl)-6,7-dihydro-1H-imidazo[4,5-c]pyridin-5(4H)-yl)(1-methyl-3-(trifluoromethyl)-1H-pyrazol-5-yl)methanone]	1000 to 5000
Cn1nc(C(F)(F)F)cc1C(=O)N1CCc2[nH]cnc2[C@@H]1c1nc2c(F)cccc2s1 [Example 1788, (R)-(4-(4-fluorobenzo[d]thiazol-2-yl)-6,7-dihydro-1H-imidazo[4,5-c]pyridin-5(4H)-yl)(1-methyl-3-(trifluoromethyl)-1H-pyrazol-5-yl)methanone]	> 5000
O=C(c1oc(-c2ccccn2)nc1C(F)F)N1CCc2[nH]cnc2[C@H]1c1nc2ccccc2s1 [Example 1795]	< 500
O=C(c1oc(-c2ccccn2)nc1C(F)F)N1CCc2[nH]cnc2[C@@H]1c1nc2ccccc2s1 [Example 1796, (R)-(4-(benzo[d]thiazol-2-yl)-6,7-dihydro-1H-imidazo[4,5-c]pyridin-5(4H)-yl)(4-(difluoromethyl)-2-(pyridin-2-yl)oxazol-5-yl)methanone]	< 500
O=C(c1oc(-c2ccccn2)nc1C(F)F)N1CCc2[nH]cnc2[C@@H]1c1nc2c(F)cccc2s1 [Example 1797, (R)-(4-(difluoromethyl)-2-(pyridin-2-yl)oxazol-5-yl)(4-(4-fluorobenzo[d]thiazol-2-yl)-6,7-dihydro-1H-imidazo[4,5-c]pyridin-5(4H)-yl)methanone]	< 500
O=C(c1oc(-c2ccccn2)nc1C(F)F)N1CCc2[nH]cnc2[C@H]1c1nc2c(F)cccc2s1 [Example 1798, (S)-(4-(difluoromethyl)-2-(pyridin-2-yl)oxazol-5-yl)(4-(4-fluorobenzo[d]thiazol-2-yl)-6,7-dihydro-1H-imidazo[4,5-c]pyridin-5(4H)-yl)methanone]	< 500
Cn1cc(-c2nc(C(F)F)c(C(=O)N3CCc4[nH]cnc4[C@H]3c3nc4ccccc4s3)o2)cn1 [Example 1799]	< 500
Cn1nc(C(F)F)cc1C(=O)N1CCc2[nH]cnc2[C@H]1c1nc2ccccc2s1 [Example 1803]	< 500
Cn1nc(C(F)F)cc1C(=O)N1CCc2[nH]cnc2[C@@H]1c1nc2ccccc2s1 [Example 1804, (R)-(4-(benzo[d]thiazol-2-yl)-6,7-dihydro-1H-imidazo[4,5-c]pyridin-5(4H)-yl)(3-(difluoromethyl)-1-methyl-1H-pyrazol-5-yl)methanone]	1000 to 5000
Cn1ccc(-c2nnc(C(=O)N3CCc4[nH]cnc4[C@H]3c3nc4ccccc4s3)o2)n1 [Example 1805]	< 500
COCc1nc(C(F)F)c(C(=O)N2CCc3[nH]cnc3[C@H]2c2nc3ccccc3s2)o1 [Example 1807]	< 500
COCc1nc(C(F)F)c(C(=O)N2CCc3[nH]cnc3[C@@H]2c2nc3ccccc3s2)o1 [Example 1808, (R)-(4-(benzo[d]thiazol-2-yl)-6,7-dihydro-1H-imidazo[4,5-c]pyridin-5(4H)-yl)(4-(difluoromethyl)-2-(methoxymethyl)oxazol-5-yl)methanone]	1000 to 5000

Next, values leading:

AC50 [nM]	SMILES
< 500	O=C(c1nnc(-c2cnn(C(F)F)c2)o1)N1CCc2[nH]cnc2[C@H]1c1nc2ccccc2s1 [Example 1777]
> 5000	O=C(c1nnc(-c2cnn(C(F)F)c2)o1)N1CCc2[nH]cnc2[C@@H]1c1nc2ccccc2s1 [Example 1778, (R)-(4-(benzo[d]thiazol-2-yl)-6,7-dihydro-1H-imidazo[4,5-c]pyridin-5(4H)-yl)(5-(1-(difluoromethyl)-1H-pyrazol-4-yl)-1,3,4-oxadiazol-2-yl)methanone]
1000 to 5000	O=C(c1nnc(OCCC(F)(F)F)o1)N1CCc2[nH]cnc2[C@@H]1c1nc2ccccc2s1 [Example 1789, (R)-(4-(benzo[d]thiazol-2-yl)-6,7-dihydro-1H-imidazo[4,5-c]pyridin-5(4H)-yl)(5-(3,3,3-trifluoropropoxy)-1,3,4-oxadiazol-2-yl)methanone]
500 to 1000	O=C(c1nnc(OCCC(F)(F)F)o1)N1CCc2[nH]cnc2[C@H]1c1nc2ccccc2s1 [Example 1790]
1000 to 5000	O=C(c1nnc(-n2cccn2)o1)N1CCc2[nH]cnc2[C@@H]1c1nc2ccccc2s1 [Example 1791, (R)-(5-(1H-pyrazol-1-yl)-1,3,4-oxadiazol-2-yl)(4-(benzo[d]thiazol-2-yl)-6,7-dihydro-1H-imidazo[4,5-c]pyridin-5(4H)-yl)methanone]
< 500	O=C(c1nnc(-n2cccn2)o1)N1CCc2[nH]cnc2[C@H]1c1nc2ccccc2s1 [Example 1792]
< 500	O=C(c1nnc(-c2cnn(CC(F)(F)F)c2)o1)N1CCc2[nH]cnc2[C@H]1c1nc2ccccc2s1 [Example 1793, [(4S)-4-(1,3-benzothiazol-2-yl)-1,4,6,7-tetrahydroimidazo[4,5-c]pyridin-5-yl]-[5-[1-(2,2,2-trifluoroethyl)pyrazol-4-yl]-1,3,4-oxadiazol-2-yl]methanone]
1000 to 5000	O=C(c1nnc(-c2cnn(CC(F)(F)F)c2)o1)N1CCc2[nH]cnc2[C@@H]1c1nc2ccccc2s1 [Example 1794, [(4R)-4-(1,3-benzothiazol-2-yl)-1,4,6,7-tetrahydroimidazo[4,5-c]pyridin-5-yl]-[5-[1-(2,2,2-trifluoroethyl)pyrazol-4-yl]-1,3,4-oxadiazol-2-yl]methanone]
< 500	O=C(c1nnc(-c2ccc(F)c(F)c2)o1)N1CCc2[nH]cnc2[C@H]1c1nc2ccccc2s1 [Example 1801]
1000 to 5000	O=C(c1nnc(-c2ccc(F)c(F)c2)o1)N1CCc2[nH]cnc2[C@@H]1c1nc2ccccc2s1 [Example 1802, (R)-(4-(benzo[d]thiazol-2-yl)-6,7-dihydro-1H-imidazo[4,5-c]pyridin-5(4H)-yl)(5-(3,4-difluorophenyl)-1,3,4-oxadiazol-2-yl)methanone]
1000 to 5000	Cn1ccc(-c2nnc(C(=O)N3CCc4[nH]cnc4[C@@H]3c3nc4ccccc4s3)o2)n1 [Example 1806, (R)-(4-(benzo[d]thiazol-2-yl)-6,7-dihydro-1H-imidazo[4,5-c]pyridin-5(4H)-yl)(5-(1-methyl-1H-pyrazol-3-yl)-1,3,4-oxadiazol-2-yl)methanone]
